In patent US20260053942A1, “STING AGONIST IMMUNOSTIMULATORY ANTIBODY DRUG CONJUGATES” (ASTELLAS PHARAMA INC., priority 2024, published 2026):

Tests used:
NCI-H292 (Trop2+) = assay: Cell proliferation (cell killing) assay, Cell Titer-Glo, 120 hours; type: cell-based, human; settings: for EC50: Homo sapiens
Procedure: (§1) The cytotoxicity of the ADCs, iSACs and iADCs was measured in a cell proliferation assay. TROP2 positive NCI-H292, NCI-H441 cells and TROP2 negative NCI-H460 and NCI-H1703 cells were obtained from ATCC (American Type Culture Collection) and maintained in DMEM/F12 (1:1), high glucose (Corning) supplemented with 10% heat-inactivated fetal bovine serum (Thermo Scientific), 2 mM glutamax (Thermo Scientific), and 1× Penicillin/Streptomycin (Corning).
(§2) Cells were collected and counted by the Vi-CELL Cell Viability Analyzers (Beckman Coulter). A total of 7500 cells in a volume of 50 uL were seeded in each well of a 96-well flat bottom white Polystyrene plate. Test articles were diluted at 2× final concentration in the cell culture medium and 50 uL was added into each treatment well. Assay plates were cultured at 37° C. in a CO2 incubator for 120 hours. For cell viability measurement, 60 μL of Cell Titer-Glo® reagent (Promega Corp. Madison, WI) was added into each well, and plates were processed as per product instructions. Relative luminescence was measured on an ENVISION® plate reader (Perkin-Elmer; Waltham, MA). Relative luminescence readings were converted to % viability using untreated cells as controls. Data was fitted with non-linear regression analysis, using log(inhibitor) vs. response-variable slope, 4 parameter fit equation using GraphPad Prism (GraphPad v 5.00, Software; San Diego, CA).

NCI-H1703 (Trop2-) = assay: as above; type: cell-based, human; settings: for EC50: Homo sapiens
Procedure: as §1, §2

NCI-H460 (Trop2-) = assay: as above; type: cell-based, human; settings: for EC50: Homo sapiens
Procedure: as §1, §2

NCI-H441 (Trop2+) = assay: as above; type: cell-based, human; settings: for EC50: Homo sapiens
Procedure: as §1, §2

NCI-H292 cells [1] = assay: Immunogenic cell death: HMGB1 release in supernatant (sandwich ELISA), 48 hours; type: cell-based, human
Procedure: (§3) Immunogenic cell death elicited by the TROP2 ADC, iSAC, iADCs and exatecan were measured by cell surface translocate of calreticulin and release of HMGB1 in the cell culture supernatant. Briefly, TROP2 positive cell line NCI-H292 were seeded into a 96-well flat bottom plate 4 hours prior to the initialization of the assay. Test articles were formulated at a 2× starting concentration in cell culture medium, and samples were serial diluted (1:3) under sterile conditions and added onto the cells in duplicates. After incubation at 37° C. in a CO2 incubator for 48 hours, the cell supernatant was collected for measuring HMGB1 and the adherent cells were collected for calreticulin expression on the cell surface.
HMGB1 released in the supernatant was assessed via sandwich ELISA using mouse anti-human HMGB1 clone 2F6 (Sigma-Aldrich) as the capture, polyclonal rabbit anti-human HMGB1 (Abcam) as secondary, and polyclonal goat anti-rabbit IgG HRP as the detection antibody. The HMGB1 concentrations in the cell culture medium were calculated based a standard curve built on commercially available recombinant human HMGB1 (R&D Systems).

[2] = tested on: TROP2 positive NCI-H292, NCI-H441 cells and TROP2 negative NCI-H460 and NCI-H1703 cells; assay: Cell proliferation (cell killing) assay, cell line panel; type: cell-based, human; settings: all TROP2 positive and negative cell lines tested
Procedure: as §1, §2

NCI-H292 cells [3] = assay: Immunogenic cell death: cell surface calreticulin (CALR) on live cells (flow cytometry), 48 hours; type: cell-based, human; settings: for induction of CALR on live cells compared to untreated cells: NCI-H292 cells
Procedure: as §3
NCI-H292 cells were detached using Accutase (Innovative Cell Technologies) and viability was accessed using a 1:500 dilution of Zombie NIR viability dye. […] Surface calreticulin measures on the live cells were gathered using an Attune NXT Flow Cytometer (ThermoFisher Scientific) to obtain median fluorescence intensity values. All data were fitted with non-linear regression analysis, using log(agonist) vs. response, variable slope, 4 parameter fit equation using GraphPad Prism.

NCI-H292 cells [4] = assay: IP-10 and IL-6 release from TROP2 positive NCI-H292 cells, 120 hours (MSD); type: cell-based, human; settings: for EC50: Homo sapiens
Procedure: The cell supernatant was collected and IP-10 and IL-6 released in the cell culture medium was measured using Streptavidin single spot 96 well plates, compatible human antibody pairs, and calibrating solutions commercially available from MesoScale Discovery. Raw data generated by the Meso Scale Discovery (MSD®) SQ120 plate reader was imported into MSD Discovery Workbench software. Unknown sample values were interpolated from standard curves by the software and imported into Graphpad Prism. Each cytokine level was fitted with non-linear regression analysis, using log(agonist) vs. response, variable slope, 4-parameter fit equation in GraphPad Prism.

[5] = tested on: NCI-H441 cells and human PBMCs; assay: NCI-H441/PBMC co-culture (title of Table 16): cytokine (IP-10) release; type: cell-based; set-up: key: NC = Not Calculable due to incomplete curve
Procedure: (§4) For the co-culture assay, cancer cells were plated on transparent flat bottom polystyrene plates and allowed to attach overnight. The next day, serially diluted (1:4) test articles were formulated at 3× starting concentration in complete RPMI media and added onto each well. Human PBMCs were thawed and resuspended in RPMI supplemented with 10% heat-inactivated fetal bovine serum from Hyclone, 1% Penicillin/Streptomycin and 2 mM/L-glutamax. PBMCs were then added into the same well at a final ratio of PBMCs:cancer cells=30:1. Plates were incubated for 2 or 3 days at 37° C. with 5% CO2 in a cell culture incubator.
(§5) To measure the cytokine released in this assay, customized MSD V-plex plates were ordered to measure human IL6, IP-10, TNFα, IFNγ, IL-1α, MCP-1, MIP1α. The supernatant was thawed and diluted 1:50 using dilution buffer provided by the vendor before being added into the MSD plates. Cytokine measurement in the cell culture supernatant was carried out using protocols provided by the vendor. Raw data generated by the Meso Scale Discovery (MSD®) SQ120 plate reader were imported into MSD Discovery Workbench software. Unknown sample values were interpolated from standard curves by the software and imported into GraphPad Prism. Each cytokine level was fitted with non-linear regression analysis, using log(agonist) vs. response, variable slope, 4-parameter fit equation in GraphPad Prism. […]

[6] = tested on: NCI-H460 cells and human PBMCs; assay: NCI-H460/PBMC co-culture (TROP2 negative): cytokine (IP-10) release; type: cell-based; set-up: key: NC = Not Calculable due to incomplete curve
Procedure: as §4, §5

NCI-H292 cells [7] = assay: NCI-H292/PBMC co-culture: tumor cell killing (NCI-H292 cell count); type: cell-based, human; settings: TROP2 positive NCI-H292/PBMC co-culture
Procedure: (§6) The ability of different TROP2 iADCs to induce cancer cell killing, immune activation, and cytokine release was evaluated in an in vitro co-culture assay with human cancer cells and human PBMCs.
(§7) Residual RBCs were removed using ACK lysis buffer (Gibco) for 10 minutes, followed by DPBS wash. Isolated PBMCs were counted, resuspended in freezing medium (Sigma) and stored in a freezing vessel at −80° C. for 24 hours before being transferred to vapor-phase liquid nitrogen for long-term storage.
(§8) For the co-culture assay, cancer cells were plated on transparent flat bottom polystyrene plates and allowed to attach overnight. The next day, serially diluted (1:4) test articles were formulated at 3× starting concentration in complete RPMI media and added onto each well. […]
(§9) On the day of sample collection, cell culture supernatants were collected and stored at −80° C. until cytokine release analyses were performed. […] Cells were then washed with FACS buffer again and read on Cytek flow cytometer. […]
(§10) The ability of different TROP2 iADCs to induce cancer cell killing, immune activation, and cytokine release was evaluated in an in vitro co-culture assay with TROP2 positive CaoV3 cells or NCI-H292 cells and human PBMCs. h1925-C06, an anti-TROP2 antibody, was conjugated to LP-C1 on the heavy chain Y180/F404 sites and to different STING agonist linker payloads at light chain K42 sites. […]

human PBMCs = assay: NCI-H292/PBMC co-culture: monocyte/immune cell count and activation (FACS); type: cell-based; settings: TROP2 positive NCI-H292/PBMC co-culture
Procedure: as §6, §7, §8, §9, §10

NCI-H460 cells = assay: NCI-H460/PBMC co-culture (TROP2 negative): tumor cell killing; type: cell-based, human
Procedure: as §6, §7, §4
On the day of sample collection, cell culture supernatants were collected and stored at −80° C. until cytokine release analyses were performed. All the cells in the well were combined (both suspension and adherent cells) and resuspended in 50 μL of PBS containing Live/Dead Fixable Violet Dead Cell Stain (Thermo Fisher) and 1× human Fc block (BD Biosciences) and incubated at 37° C. for 20 minutes. […] After incubation on ice for 1 hour, cells were washed with FACS buffer and fixed with 50 uL/well of 2% PFA (paraformaldehyde) for 20 minutes. Cells were then washed with FACS buffer again and read on Cytek flow cytometer. FACS data analysis was done by Flowjo software to identify monocytes, B cells, CD4+ T cells, CD8+ T cells, NK cells and Dendritic cells and their activation status. Data from Flowjo was exported and plotted using non-linear regression analysis, log(agonist/inhibitor) vs. response, variable slope, 4-parameter fit equation in GraphPad Prism. […]

NCI-H441 cells = assay: NCI-H441/PBMC co-culture (title of Table 16): tumor cell killing; type: cell-based, human
Procedure: as §6, §7, §4, §9

[8] = NCI-H292 cells, read-out: IL-6 induction EC50
[9] = NCI-H292 cells, read-out: IP-10 induction EC50
[10] = TROP2 positive NCI-H292 cells, read-out: IL-6 Release EC50
[11] = TROP2 positive NCI-H292 cells, read-out: IP-10 Release EC50

EC50 (NCI-H292 cells [4]; [8])	EC50 (NCI-H292 cells [4]; [9])	EC50 (NCI-H292 cells [4]; [10])	EC50 (NCI-H292 cells [4]; [11])	Compound	Span cell killing (NCI-H292 (Trop2+))	EC50 (NCI-H292 (Trop2+))	Span cell killing (NCI-H1703 (Trop2-))	EC50 (NCI-H1703 (Trop2-))	Span cell killing (NCI-H460 (Trop2-))	EC50 (NCI-H460 (Trop2-))	Span cell killing (NCI-H441 (Trop2+))	EC50 (NCI-H441 (Trop2+))	release of HMGB1 into the cell culture supernatant (NCI-H292 cells [1])	HMGB-1 Release Span (NCI-H292 cells [1]; supernatant)	cell killing (in words) [2]	induction of CALR on live cells compared to untreated cells (NCI-H292 cells [3])	IL-6 Release Span (NCI-H292 cells [4]; TROP2 positive NCI-H292 cells)	IP-10 Release Span (NCI-H292 cells [4]; TROP2 positive NCI-H292 cells)	other results
> 100 nM	> 100 nM	> 100 nM	> 100 nM	CCn1nc(C)cc1C(=O)Nc1nc2cc(C(N)=O)ccc2n1C/C=C/Cn1c(NC(=O)c2cc(C)nn2CC)nc2cc(C(N)=O)cc(OCCCN3CC4(CNCCO4)C3)c21 [Compound S-1]	<15%	> 100 nM	<15%	> 100 nM	<15%	> 100 nM	<15%	> 100 nM	30 ng/mL	17 ng/mL	did not result in significant cell killing	no induction of CALR	>10000 pg/mL	>4000 pg/mL	
> 100 nM	> 100 nM	> 100 nM	> 100 nM	CCn1nc(C)cc1C(=O)Nc1nc2cc(C(N)=O)cc(OC)c2n1C/C=C/Cn1c(NC(=O)c2cc(C)nn2CC)nc2cc(C(N)=O)cc(OCCCN3CCC(c4nnc5n4CCNC5)CC3)c21 [Compound S-3, 1-[(E)-4-[5-Carbamoyl-2-[(2-ethyl-5-methyl-pyrazole-3-carbonyl)amino]-7-[3-[4-(5,6,7,8-tetrahydro-[1,2,4]triazolo[4,3-a]pyrazin-3-yl)-1-piperidyl]propoxy]benzimidazol-1-yl]but-2-enyl]-2-[(2-ethyl-5-methyl-pyrazole-3-carbonyl)amino]-7-methoxy-benzimidazole-5-carboxamide]	<15%	> 100 nM	<15%	> 100 nM	<15%	> 100 nM	<15%	> 100 nM	30 ng/mL	11 ng/mL	did not result in significant cell killing	no induction of CALR	>8000 pg/mL	>4000 pg/mL	

Compound	EC50 (NCI-H292 cells [4]; [8])	EC50 (NCI-H292 cells [4]; [9])	EC50 (NCI-H292 cells [4]; [10])	EC50 (NCI-H292 cells [4]; [11])	Span cell killing (NCI-H292 (Trop2+))	EC50 (NCI-H292 (Trop2+))	Span cell killing (NCI-H1703 (Trop2-))	EC50 (NCI-H1703 (Trop2-))	Span cell killing (NCI-H460 (Trop2-))	EC50 (NCI-H460 (Trop2-))	Span cell killing (NCI-H441 (Trop2+))	EC50 (NCI-H441 (Trop2+))	release of HMGB1 into the cell culture supernatant (NCI-H292 cells [1])	HMGB-1 Release Span (NCI-H292 cells [1]; supernatant)	cell killing (in words) [2]	induction of CALR on live cells compared to untreated cells (NCI-H292 cells [3])	IL-6 Release Span (NCI-H292 cells [4]; TROP2 positive NCI-H292 cells)	IP-10 Release Span (NCI-H292 cells [4]; TROP2 positive NCI-H292 cells)	other results
CC[C@@]1(O)C(=O)OCc2c1cc1n(c2=O)Cc2c-1nc1cc(F)c(C)c3c1c2[C@@H](N)CC3 [Exatecan, exatecan, reference compound]			14.7 nM	0.87 nM	80%	0.88 nM	95%	1.04 nM	83%	0.97 nM	89%	0.57 nM	~70 ng/mL	55 ng/mL	good cell killing	~2 fold	1410 pg/mL	203 pg/mL	IP-10 Release Span [5]: NC; IP-10 Release Span [6]: NC; EC50 (NCI-H292 cells [1]; Homo sapiens, supernatant, read-out: HMGB-1 Release EC50): 2.08 nM; tumor cell killing (in words) (NCI-H292 cells [7]): potent tumor cell killing; immune cell activation and cytokine release (in words) (human PBMCs): did not induce activation of any immune populations; EC50 (NCI-H292 cells [3]; Homo sapiens, NCI-H292 live cells, cell surface): 0.19 nM; Calreticulin Span (NCI-H292 cells [3]; NCI-H292 live cells, cell surface): 783 MFI; IC50 (NCI-H460 cells; Homo sapiens, NCI-H460/PBMC co-culture, TROP2 negative, tumor cell killing, read-out: Cancer Cell Count IC50): 0.38 nM; Cancer Cell Count Span (NCI-H460 cells; NCI-H460/PBMC co-culture, TROP2 negative): 23,530 Cell Count; tumor cell killing (in words) (NCI-H460 cells; TROP2 negative NCI-H460/PBMC co-culture): potent tumor cell killing; induction of IP-10 and IL-6 release (in words) (NCI-H292 cells [4]; NCI-H292 cells): not; IC50 (NCI-H441 cells; Homo sapiens, tumor cell killing, read-out: Cancer Cell Count IC50): 0.44 nM; Cancer Cell Count Span (NCI-H441 cells; Span = Top minus Bottom of dose response curve): 5,749 Cell Count
